Reference: patent EP4122499A1, “FIBROBLAST ACTIVATION PROTEIN INHIBITORS AND USE THEREOF” (3B Pharmaceuticals GmbH, priority 2021, dated 2023)

Target: T1, Human recombinant FAP (Homo sapiens, UniProt Q12884)
T1 sequence (Q12884 1-760): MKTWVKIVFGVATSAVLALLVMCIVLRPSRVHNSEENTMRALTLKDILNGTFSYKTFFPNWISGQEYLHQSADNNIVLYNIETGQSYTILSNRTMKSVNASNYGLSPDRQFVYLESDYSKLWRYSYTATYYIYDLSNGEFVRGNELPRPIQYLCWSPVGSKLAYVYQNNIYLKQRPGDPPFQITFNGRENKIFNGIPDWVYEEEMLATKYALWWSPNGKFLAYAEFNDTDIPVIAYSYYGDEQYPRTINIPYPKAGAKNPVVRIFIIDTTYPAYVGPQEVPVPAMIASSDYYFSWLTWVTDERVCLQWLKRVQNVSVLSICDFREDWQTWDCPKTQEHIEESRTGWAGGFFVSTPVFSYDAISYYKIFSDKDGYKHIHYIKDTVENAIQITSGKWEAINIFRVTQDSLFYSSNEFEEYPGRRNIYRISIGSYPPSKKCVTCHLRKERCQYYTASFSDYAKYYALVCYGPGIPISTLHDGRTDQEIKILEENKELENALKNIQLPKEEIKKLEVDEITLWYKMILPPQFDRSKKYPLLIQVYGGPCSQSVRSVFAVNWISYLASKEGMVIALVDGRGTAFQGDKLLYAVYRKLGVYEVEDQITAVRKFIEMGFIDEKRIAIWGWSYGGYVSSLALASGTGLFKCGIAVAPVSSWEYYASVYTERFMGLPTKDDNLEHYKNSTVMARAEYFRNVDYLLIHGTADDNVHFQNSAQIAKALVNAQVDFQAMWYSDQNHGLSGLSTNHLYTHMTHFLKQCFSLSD
Experiment: Surface plasmon resonance assay (Biacore T200, single cycle kinetics)
Type: binding
Conditions: SPR, 25°C; for pKD (Biacore) / Kd: 1:1 Langmuir binding model; for HL [min] (Biacore): half-life; for Kd: read-out: pKD (Biacore) (converted)
In short: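 Human recombinant FAP (20 µg/mL) was captured on anti-FAP antibody immobilized on a CM5 chip, and compounds were run in single-cycle kinetics at 25 °C in HBST with 0.1% DMSO, starting from 500 nM. Sensorgrams were corrected against a reference flow cell and for baseline drift. kon, koff, KD and t1/2 came from a 1:1 Langmuir fit, with pKD = −log KD.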

pKD (Biacore)	HL [min] (Biacore)	Kd	SMILES
>11	>500 min	–	O=C(O)CN1CCN(CC(=O)O)CCN(CC(=O)N2CCN(CCNC(=O)c3cccc(-c4ccc5c(C(=O)NCC(=O)N6CCC[C@H]6C(=O)c6nc7ccccc7o6)ccnc5c4)c3)CC2)CCN(CC(=O)O)CC1 [drawing 352]
–	3.7 min	0.501 nM	O=C(NCC(=O)N1CCC[C@H]1C(=O)c1nc2ccccc2o1)c1ccnc2ccccc12
–	2.5 min	0.398 nM	CS(=O)(=O)c1cccc(-c2ccc3nccc(C(=O)NCC(=O)N4CCC[C@H]4C#N)c3c2)c1
–	5.7 min	0.501 nM	CS(=O)(=O)c1cccc(-c2ccc3c(C(=O)NCC(=O)N4CCC[C@H]4C#N)ccnc3c2)c1
–	0.4 min	2.51 nM	CC(C)(C)c1nnc(C(=O)[C@@H]2CCCN2C(=O)CNC(=O)c2ccnc3ccccc23)o1
9.1	10.5 min	–	O=C(O)CN1CCN(CC(=O)O)CCN(CC(=O)N2CCN(CCNC(=O)c3ccc(-c4ccc5nccc(C(=O)NCC(=O)N6CCC[C@H]6C(=O)c6nc7ccccc7o6)c5c4)cc3)CC2)CCN(CC(=O)O)CC1 [drawing 354]
9.8	19 min	–	N#C[C@@H]1CC(F)(F)CN1C(=O)CNC(=O)c1cc[n+]([O-])c2ccc(OCCCN3CCN(C(=O)CN4CCN(CC(=O)O)CCN(CC(=O)O)CCN(CC(=O)O)CC4)CC3)cc12
>11	>500 min	–	O=C(O)CN1CCN(CC(=O)O)CCN(CC(=O)N2CCN(CCCOc3ccc4nccc(C(=O)NCC(=O)N5CCC[C@H]5C(=O)c5nc6ccccc6o5)c4c3)CC2)CCN(CC(=O)O)CC1 [drawing 357]
8.7	4.1 min	–	O=C(O)CN1CCN(CC(=O)O)CCN(CC(=O)N2CCN(CCNC(=O)c3ccc(-c4ccc5nccc(C(=O)NCC(=O)N6CCC[C@H]6C(=O)c6nc7ccccc7o6)c5c4)cn3)CC2)CCN(CC(=O)O)CC1 [drawing 361]
10.3	259.3 min	–	O=C(O)CN1CCN(CC(=O)O)CCN(CC(=O)NCCCNC(=O)c2ccc(-c3ccc4nccc(C(=O)NCC(=O)N5CCC[C@H]5C(=O)c5nc6ccccc6o5)c4c3)cc2)CCN(CC(=O)O)CC1
–	125 min	0.0251 nM	CS(=O)(=O)c1ccc(-c2ccc3nccc(C(=O)NCC(=O)N4CC(F)(F)C[C@H]4C#N)c3c2)cc1
10.1	289.5 min	–	O=C(O)CN1CCN(CC(=O)O)CCN(CC(=O)N2CCN(CCNC(=O)c3cccc(-c4ccc5nccc(C(=O)NCC(=O)N6CCC[C@H]6C(=O)c6nc7ccccc7o6)c5c4)c3)CC2)CCN(CC(=O)O)CC1 [drawing 353]
–	0.3 min	3.98 nM	O=C(NCC(=O)N1CCC[C@H]1C(=O)c1nc2ccccc2s1)c1ccnc2ccccc12
–	0.3 min	12.6 nM	O=C(NCC(=O)N1CCC[C@H]1C(=O)c1nccs1)c1ccnc2ccccc12
9	4.8 min	–	O=C(O)CN1CCN(CC(=O)O)CCN(CC(=O)N2CCN(CCNC(=O)c3ccc(-c4ccc5nccc(C(=O)NCC(=O)N6C[C@@H](F)C[C@H]6C(=O)c6nc7ccccc7o6)c5c4)cc3)CC2)CCN(CC(=O)O)CC1 [drawing 360]
–	12 min	0.158 nM	CS(=O)(=O)c1ccc(-c2ccc3nccc(C(=O)NCC(=O)N4CCC[C@H]4C#N)c3c2)cc1
8.6	57 min	–	O=C(O)CN1CCN(CC(=O)O)CCN(CC(=O)N2CCN(CCCOc3ccc4nccc(C(=O)NCC(=O)N5CC(F)(F)C[C@H]5C(=O)c5nc6ccccc6o5)c4c3)CC2)CCN(CC(=O)O)CC1

SMILES	pKD (Biacore)	HL [min] (Biacore)	Kd
O=C(O)CN1CCN(CC(=O)O)CCN(CC(=O)N2CCN(CCNC(=O)c3ccc(-c4ccc5c(C(=O)NCC(=O)N6CCC[C@H]6C(=O)c6nc7ccccc7o6)ccnc5c4)cc3)CC2)CCN(CC(=O)O)CC1 [drawing 355]	>11	>500 min	–
CS(=O)(=O)c1ccc(-c2ccc3c(C(=O)NCC(=O)N4CCC[C@H]4C#N)ccnc3c2)cc1 [drawing 290]	–	4 min	0.631 nM
N#C[C@@H]1CCCN1C(=O)CNC(=O)c1ccnc2ccc(-c3ccc(C(=O)NCCCNC(=O)CN4CCN(CC(=O)O)CCN(CC(=O)O)CCN(CC(=O)O)CC4)cc3)cc12	10.2	160 min	–
O=C(NCC(=O)N1CCC[C@H]1C(=O)c1ncco1)c1ccnc2ccccc12 [drawing 297]	–	0.6 min	2.51 nM
N#C[C@@H]1CC(F)(F)CN1C(=O)CNC(=O)c1ccnc2ccc(-c3ccc(C(=O)NCCCNC(=O)CN4CCN(CC(=O)O)CCN(CC(=O)O)CCN(CC(=O)O)CC4)cc3)cc12	>11	110 min	–
O=C(O)CN1CCN(CC(=O)O)CCN(CC(=O)N2CCN(CCCOc3ccc4nccc(C(=O)NCC(=O)N5C[C@@H](F)C[C@H]5C(=O)c5nc6ccccc6o5)c4c3)CC2)CCN(CC(=O)O)CC1 [drawing 358]	>11	>500 min	–
N#C[C@@H]1CC(F)(F)CN1C(=O)CNC(=O)c1ccnc2ccc(-c3ccc(C(=O)NCCN4CCN(C(=O)CN5CCN(CC(=O)O)CCN(CC(=O)O)CCN(CC(=O)O)CC5)CC4)cc3)cc12	>11	>500 min	–
N#C[C@@H]1CC(F)(F)CN1C(=O)CNC(=O)c1ccnc2ccc(-c3ccc(C(=O)NCCCNC(=O)CN4CCN(CC(=O)O)CCN(CC(=O)O)CCN(CC(=O)O)CC4)nc3)cc12	>11	>500 min	–
CS(=O)(=O)c1cccc(-c2ccc3nccc(C(=O)NCC(=O)N4CC(F)(F)C[C@H]4C#N)c3c2)c1 [drawing 288]	–	29 min	0.0794 nM
O=C(O)CN1CCN(CC(=O)O)CCN(CC(=O)NCCCNC(=O)c2ccc(-c3ccc4nccc(C(=O)NCC(=O)N5CCC[C@H]5B(O)O)c4c3)cc2)CCN(CC(=O)O)CC1	>11	>500 min	–
N#C[C@@H]1CC(F)(F)CN1C(=O)CNC(=O)c1ccnc2ccc(-c3ccc(S(=O)(=O)CCCNC(=O)CN4CCN(CC(=O)O)CCN(CC(=O)O)CCN(CC(=O)O)CC4)cc3)cc12	>11	>500 min	–
CS(=O)(=O)c1cccc(-c2ccc3c(C(=O)NCC(=O)N4CC(F)(F)C[C@H]4C#N)ccnc3c2)c1 [drawing 289]	–	29.5 min	0.0794 nM
